System: Staphylococcus aureus IF013276, Escherichia coli IF03972, Pseudomonas aeruginosa IF013275
Assay: Antibacterial test (inoculated composition held at 30° C., colony counting method)
Format: cell-based
Experimental: The following bacteria were suspended in a physiological saline such that the number of bacteria or spores was 10^8 CFU/mL. to prepare a bacteria-containing solution. Then, 0.005 mL of the thus obtained bacteria-containing solution was inoculated into 5 mL of the composition to be tested such that the bacteria concentration therein was […]. The thus inoculated composition was held at 30° C. for a predetermined period of time to measure the change in number of bacteria with time by the calculation using a colony counting method. The antibacterial property of the composition was evaluated according to the following four ratings.
Staphylococcus aureus IF013276
Pseudomonas aeruginosa IF013275
⊚: Sufficiently high antibacterial property (number of bacteria was decreased by […] or more)
◯: High antibacterial property (number of bacteria was decreased by […])
Δ: Low antibacterial property (number of bacteria was decreased by 10^2 to 10^1)

Substance: α,β-n-dodecyl galactoside
- antibacterial property by itself (0.1% by mass in water without antiseptic agent, Table 1, after 9 days): no antibacterial property

Substance: α,β-2-hexyldecyl galactoside
- antibacterial property by itself (0.1% by mass without antiseptic agent, with polyoxyethylene (60) hydrogenated castor oil, Table 2, after 7 days): no antibacterial property

Reference: patent US20090156511A1, “Agent for Enhancing Antiseptic Power” (Kao Corporation, priority 2005, published 2009)
